Test system: patient with Stargardt's disease, fundus flavimaculatus
Test: Clinical treatment of Stargardt's flavimaculatus disease: visual acuity
Assay type: in vivo, human
Conditions: for visual acuity after treatment: one patient
Experimental: The invention will now be illustrated by the following description of clinical examples which, of course, are not limiting in nature. In these examples the active principle, in particular ramipril, was administered continuously in an oral form, in an amount of 1.25 mg per day.
Ramipril was used in the following three disorders: retinitis pigmentosa; Stargardt's disease, fundus flavimaculatus; adult pseudo-vitelliform dystrophy.
One patient was treated; acuity improved from 1/20 to 1/10 in the right eye and from 1/50 to 3/10 in the left eye.

With `CCOC(=O)[C@H](CCc1ccccc1)N[C@@H](C)C(=O)N1[C@H](C(=O)O)C[C@@H]2CCC[C@@H]21` [ramipril] the visual function (Stargardt's disease, fundus flavimaculatus, all cases) was “improvement in visual function”, the “visual acuity after treatment” value (left eye, before 1/50) was 3/10 and the “visual acuity after treatment” value (right eye, before 1/20) was 1/10.

Source: patent publication US7049340B1, “Neuroprotective and retinoprotective ophthalmologic drugs” (priority 1999, dated 2006)
